Starred links: 1 amine or outer side, 2 acyl side, 3 side chain; linkers in the order of their positions; H or OH if unused. Non-standard residues stand in square brackets, D forms with d. Residues, ends and D or L forms follow the SMILES beside them. Groups on a side chain read outwards from the residue. *: point of attachment. Ala(1H-tetrazol-5-yl) = N[C@@H](Cc1nnn[nH]1)C(=O)O; C18 diacid = O=C(O)CCCCCCCCCCCCCCCCC(=O)*; X8 = O=C([C@H](CCc1nn[nH]n1)N[*:1])[*:2]; Dip = N[C@H](C(=O)O)C(c1ccccc1)c1ccccc1; γGlu = O=C(O)[C@H](CCC(=O)[*:2])N[*:1]; His(τ-Me) = Cn1cnc(C[C@H](N)C(=O)O)c1; Gly(NCH2CH2Ph) = O=C(O)CNCCc1ccccc1; Palmitoyl = CCCCCCCCCCCCCCCC(=O)*; Myristoyl = CCCCCCCCCCCCCC(=O)*; β3hF = N[C@H](CC(=O)O)Cc1ccccc1; NMeL = CN[C@@H](CC(C)C)C(=O)O; NMeK = CN[C@@H](CCCCN)C(=O)O; Lauroyl = CCCCCCCCCCCC(=O)*; Decanoyl = CCCCCCCCCC(=O)*; Isovaleryl = CC(C)CC(=O)*; AEEA = NCCOCCOCC(=O)O; Ahx = NCCCCCC(=O)O; βAla = NCCC(=O)O; NHPr = CCCN*

In the first test the target is T1, ferroportin (Homo sapiens, UniProt Q9NP59).
T1 sequence (Q9NP59 1-571): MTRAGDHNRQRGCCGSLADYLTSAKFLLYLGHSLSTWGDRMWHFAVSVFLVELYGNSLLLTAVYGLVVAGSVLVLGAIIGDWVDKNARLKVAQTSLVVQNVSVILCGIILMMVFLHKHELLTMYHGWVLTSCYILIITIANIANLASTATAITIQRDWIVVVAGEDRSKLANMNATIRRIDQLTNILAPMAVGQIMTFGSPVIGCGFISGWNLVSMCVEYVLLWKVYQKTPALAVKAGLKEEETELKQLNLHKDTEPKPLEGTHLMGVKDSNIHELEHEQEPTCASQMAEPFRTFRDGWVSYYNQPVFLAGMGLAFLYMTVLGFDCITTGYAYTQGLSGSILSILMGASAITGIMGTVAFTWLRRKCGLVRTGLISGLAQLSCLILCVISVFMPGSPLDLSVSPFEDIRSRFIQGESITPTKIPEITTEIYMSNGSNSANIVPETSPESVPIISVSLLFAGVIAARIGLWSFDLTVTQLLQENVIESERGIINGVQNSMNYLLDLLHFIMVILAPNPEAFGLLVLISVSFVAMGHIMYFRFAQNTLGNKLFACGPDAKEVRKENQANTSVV
Description: FPN activity assay: internalization/degradation of ferroportin-GFP in stably transfected HEK293 cells (loss of GFP fluorescence). Format: cell-based. The settings on record: Table 6A; read-out: FPN EC50. The method, then: Following internalization, the ferroporin protein is degraded.
A retro inverse peptide is a peptide with a reversed sequence in all D amino acids. An example is that Hy-Glu-Thr-His-NH2 becomes Hy-DHis-DThr-DGlu-NH2. The EC50 of these reference compounds for ferroportin internalization/degradation was determined according to the FPN activity assay described above. These peptides served as control standards.
Take `CCCCCCCCCCCCCCCC(=O)NCCCCCC(=O)NCCOCCOCC(=O)NCCOCCOCC(=O)NCCCC[C@H](NC(=O)[C@@H](NC(=O)[C@H](C)NC(=O)[C@@H]1CCCN1C(=O)[C@@H](NC(=O)[C@H](Cc1c[nH]cn1)NC(=O)[C@@H](NC(=O)[C@H](CCC(=O)O)NC(=O)CC(C)C)[C@@H](C)O)C(c1ccccc1)c1ccccc1)[C@@H](C)CC)C(=O)N[C@H](CC(N)=O)Cc1ccccc1` [compound 101] (Isovaleryl-ETH[Dip]PAIK([AEEA-AEEA-Ahx-Palmitoyl])[β3hF]-NH2): the DC50 stood at 63.5 nM.
For `CCCCCCCCCCCCCCCC(=O)NCCCCCC(=O)NCCCC[C@H](NC(=O)[C@@H](NC(=O)[C@@H](NC(=O)[C@@H]1CCCN1C(=O)[C@@H](NC(=O)[C@H](Cc1cn(C)cn1)NC(=O)[C@@H](NC(=O)[C@H](CCc1nn[nH]n1)NC(=O)CC(C)C)[C@@H](C)O)C(c1ccccc1)c1ccccc1)[C@@H](C)CC)[C@@H](C)CC)C(=O)N[C@H](CC(N)=O)Cc1ccccc1` [compound 117] (Isovaleryl-[X8]T[His(τ-Me)][Dip]PIIK([Ahx-Palmitoyl])[β3hF]-NH2), the DC50 was found to be 101 nM.
Same read-out and setting: under `CCCCCCCCCCCCCCCC(=O)NCCC(=O)NCCC(=O)NCCCC[C@H](NC(=O)[C@@H](NC(=O)[C@H](C)NC(=O)[C@@H]1CCCN1C(=O)[C@@H](NC(=O)[C@H](Cc1c[nH]cn1)NC(=O)[C@@H](NC(=O)[C@H](CCC(=O)O)NC(=O)CC(C)C)[C@@H](C)O)C(c1ccccc1)c1ccccc1)[C@@H](C)CC)C(=O)N[C@H](CC(N)=O)Cc1ccccc1` [compound 99] (Isovaleryl-ETH[Dip]PAIK([βAla-βAla-Palmitoyl])[β3hF]-NH2) stands 103 nM.
With `CCCCCCCCCCCCCCCC(=O)NCCCCCC(=O)NCCCC[C@H](NC(=O)C[C@H](Cc1ccccc1)NC(=O)[C@H](CCCCN)N(C)C(=O)[C@@H](NC(=O)[C@H](C)NC(=O)[C@@H]1CCCN1C(=O)[C@@H](NC(=O)[C@H](Cc1c[nH]cn1)NC(=O)[C@@H](NC(=O)[C@H](CC(C)C)NC(=O)CC(C)C)[C@@H](C)O)C(c1ccccc1)c1ccccc1)[C@@H](C)CC)C(N)=O` [compound 46] (Isovaleryl-LTH[Dip]PAI[NMeK][β3hF]K([Ahx-Palmitoyl])-NH2), the DC50 stood at 103 nM.
Regarding `CCCCCCCCCCCCCCCC(=O)NCCCCCC(=O)NCCCC[C@H](NC(=O)[C@@H](NC(=O)[C@H](CC(C)C)NC(=O)[C@@H]1CCCN1C(=O)[C@@H](NC(=O)[C@H](Cc1c[nH]cn1)NC(=O)[C@@H](NC(=O)[C@H](CCC(=O)O)NC(=O)CC(C)C)[C@@H](C)O)C(c1ccccc1)c1ccccc1)[C@@H](C)CC)C(=O)N(C)[C@@H](CC(C)C)C(N)=O` [compound 140] (Isovaleryl-ETH[Dip]PLIK([Ahx-Palmitoyl])[NMeL]-NH2), the DC50 was determined as 32.4 nM.
Consider `CC[C@H](C)[C@H](NC(=O)[C@H](C)NC(=O)[C@@H]1CCCN1C(=O)[C@@H](NC(=O)[C@H](Cc1cn(C)cn1)NC(=O)[C@@H](NC(=O)[C@H](CCc1nn[nH]n1)NC(=O)CC(C)C)[C@@H](C)O)C(c1ccccc1)c1ccccc1)C(=O)N[C@@H](CCCCNC(C)=O)C(=O)N[C@H](CC(=O)N[C@H](CCCCN)C(N)=O)Cc1ccccc1` [compound 41] (Isovaleryl-[X8]T[His(τ-Me)][Dip]PAIK(Ac)[β3hF][dK]-NH2), for which the DC50 was over 3000 nM.
For the molecule `CCCCCCCCCCCCCCCC(=O)NCCCCCC(=O)NCCCC[C@H](NC(=O)C[C@H](Cc1ccccc1)NC(=O)[C@@H](CCCCN)NC(=O)[C@@H](NC(=O)[C@H](C)NC(=O)[C@@H]1CCCN1C(=O)[C@@H](NC(=O)[C@H](Cc1c[nH]cn1)NC(=O)[C@@H](NC(=O)[C@H](CCC(=O)O)NC(=O)CC(C)C)[C@@H](C)O)C(c1ccccc1)c1ccccc1)[C@@H](C)CC)C(N)=O` [compound 3] (Isovaleryl-ETH[Dip]PAI[dK][β3hF]K([Ahx-Palmitoyl])-NH2), the DC50 turned out to be 24.9 nM.
Consider `CCCCCCCCCCCCCCCC(=O)NCCCCCC(=O)NCCCC[C@H](NC(=O)[C@@H](NC(=O)[C@@H](NC(=O)[C@@H]1CCCN1C(=O)[C@@H](NC(=O)[C@H](Cc1c[nH]cn1)NC(=O)[C@@H](NC(=O)[C@H](Cc1nn[nH]n1)NC(=O)CC(C)C)[C@@H](C)O)C(c1ccccc1)c1ccccc1)[C@@H](C)CC)[C@@H](C)CC)C(=O)N[C@H](CC(N)=O)Cc1ccccc1` [compound 113] (Isovaleryl-[Ala(1H-tetrazol-5-yl)]TH[Dip]PIIK([Ahx-Palmitoyl])[β3hF]-NH2), for which the DC50 is 86.8 nM.
`CCCCCCCCCCCCCCCC(=O)NCCCCCC(=O)NCCCC[C@H](NC(=O)[C@@H](NC(=O)[C@H](C)NC(=O)[C@@H]1CCCN1C(=O)[C@@H](NC(=O)[C@H](Cc1c[nH]cn1)NC(=O)[C@@H](NC(=O)[C@H](CCC(=O)O)NC(=O)CC(C)C)[C@@H](C)O)C(c1ccccc1)c1ccccc1)[C@@H](C)CC)C(=O)N(CCc1ccccc1)CC(N)=O` [compound 93] (Isovaleryl-ETH[Dip]PAIK([Ahx-Palmitoyl])[Gly(NCH2CH2Ph)]-NH2): the DC50 amounted to 31.9 nM.
With `CCCCCCCCCCCCCCCC(=O)NCCCCCC(=O)NCCCC[C@H](NC(=O)[C@@H](NC(=O)[C@H](C)NC(=O)[C@@H]1CCCN1C(=O)[C@@H](NC(=O)[C@H](Cc1c[nH]cn1)NC(=O)[C@@H](NC(=O)[C@H](CCC(=O)O)NC(=O)CC(C)C)[C@@H](C)O)C(c1ccccc1)c1ccccc1)[C@@H](C)CC)C(=O)N[C@H](CC(N)=O)Cc1ccccc1` [SEQ ID No. 9, Isovaleric Acid-E-T-H-[Dpa]-P-A-I-[Lys(Ahx_Palm)]-[bhPhe]-NH2] (Isovaleryl-ETH[Dip]PAIK([Ahx-Palmitoyl])[β3hF]-NH2), the DC50 amounted to 31.9 nM.

Still in this test, the particulars now being: ferroportin-GFP HEK293 cells, compound incubated at least 18 hours; read-out: FPN IC50.
With `CCCCCCCCCC(=O)NCCCCCC(=O)NCCCC[C@H](NC(=O)[C@@H](NC(=O)[C@H](C)NC(=O)[C@@H]1CCCN1C(=O)[C@H](Cc1ccccc1)NC(=O)[C@H](Cc1c[nH]cn1)NC(=O)[C@@H](NC(=O)[C@H](CCC(=O)O)NC(=O)CC(C)C)[C@@H](C)O)[C@@H](C)CC)C(=O)N[C@@H](Cc1ccccc1)C(=O)N[C@@H](CCC(=O)O)C(=O)N1CCC[C@H]1C(=O)N[C@@H](CCCNC(=N)N)C(=O)N[C@@H](CO)C(=O)N[C@@H](CCCCN)C(=O)NCC(=O)N[C@@H](C)C(=O)N[C@@H](CCCCN)C(N)=O` [compound 244] (Isovaleryl-ETHFPAIK([Ahx-Decanoyl])FEPRSKGAK-NH2), the DC50 is over 3000 nM.
On to `CCCCCCCCCCCCCCCC(=O)NCCCCCC(=O)NCCCC[C@H](NC(C)=O)C(=O)N[C@H](C(=O)N[C@@H](Cc1c[nH]cn1)C(=O)N[C@H](C(=O)N1CCC[C@H]1C(=O)N[C@@H](C)C(=O)N[C@H](C(=O)N[C@H](CCCCN)C(=O)N[C@H](CC(N)=O)Cc1ccccc1)[C@@H](C)CC)C(c1ccccc1)c1ccccc1)[C@@H](C)O` [compound 201] (Ac-K([Ahx-Palmitoyl])TH[Dip]PAI[dK][β3hF]-NH2), for which the DC50 is over 3000 nM.
For `CCCCCCCCCCCC(=O)NCCCCCC(=O)NCCCC[C@H](NC(=O)[C@@H](NC(=O)[C@H](C)NC(=O)[C@@H]1CCCN1C(=O)[C@H](Cc1ccccc1)NC(=O)[C@H](Cc1c[nH]cn1)NC(=O)[C@@H](NC(=O)[C@H](CCC(=O)O)NC(=O)CC(C)C)[C@@H](C)O)[C@@H](C)CC)C(=O)N[C@@H](Cc1ccccc1)C(=O)N[C@@H](CCC(=O)O)C(=O)N1CCC[C@H]1C(=O)N[C@@H](CCCNC(=N)N)C(=O)N[C@@H](CO)C(=O)N[C@@H](CCCCN)C(=O)NCC(=O)N[C@@H](C)C(=O)N[C@@H](CCCCN)C(N)=O` [compound 243] (Isovaleryl-ETHFPAIK([Ahx-Lauroyl])FEPRSKGAK-NH2), the DC50 worked out at 1070 nM.
Turning to `CCCNC(=O)[C@H](CCCCNC(=O)COCCOCCNC(=O)COCCOCCNC(=O)CC[C@H](NC(=O)CCCCCCCCCCCCCCCCC(=O)O)C(=O)O)NC(=O)[C@@H](NC(=O)[C@H](Cc1c[nH]cn1)NC(=O)[C@@H](NC(=O)[C@H](CC(C)C)NC(=O)CC(C)C)[C@@H](C)O)C(c1ccccc1)c1ccccc1` [compound 228] (Isovaleryl-LTH[Dip]K([AEEA-AEEA-γGlu-C18 diacid])-NHPr), the DC50 is over 3000 nM.
For `CCCCCCCCCCCCCC(=O)NCCCCCC(=O)NCCCC[C@H](NC(=O)[C@@H](NC(=O)[C@H](C)NC(=O)[C@@H]1CCCN1C(=O)[C@H](Cc1ccccc1)NC(=O)[C@H](Cc1c[nH]cn1)NC(=O)[C@@H](NC(=O)[C@H](CCC(=O)O)NC(=O)CC(C)C)[C@@H](C)O)[C@@H](C)CC)C(=O)N[C@@H](Cc1ccccc1)C(=O)N[C@@H](CCC(=O)O)C(=O)N1CCC[C@H]1C(=O)N[C@@H](CCCNC(=N)N)C(=O)N[C@@H](CO)C(=O)N[C@@H](CCCCN)C(=O)NCC(=O)N[C@H](C)C(N)=O` [compound 246] (Isovaleryl-ETHFPAIK([Ahx-Myristoyl])FEPRSKG[dA]-NH2), the DC50 amounted to 1070 nM.
As for `CCCCCCCCCCCCCCCC(=O)NCCCCCC(=O)NCCCC[C@H](NC(=O)[C@@H](NC(=O)[C@H](CC(C)C)NC(=O)[C@@H]1CCCN1C(=O)[C@@H](NC(=O)[C@H](Cc1c[nH]cn1)NC(=O)[C@@H](NC(=O)[C@H](CCC(=O)O)NC(=O)CC(C)C)[C@@H](C)O)C(c1ccccc1)c1ccccc1)[C@@H](C)CC)C(=O)N[C@@H](CC(C)C)C(N)=O` [compound 205] (Isovaleryl-ETH[Dip]PLIK([Ahx-Palmitoyl])L-NH2), the DC50 came to 37.4 nM.
